Counter-ions that a name gives are not always drawn.
Target: IRAK-4 (Homo sapiens (Human), UniProt Q9NWZ3)
Assay: In vitro IRAK-4 kinase assay
Type: biochemical
Conditions: purified recombinant IRAK-4, 50 uM ATP, 33P peptide phosphorylation
Summary of the method: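 Recombinant IRAK-4 or IRAK-1 incubated with 250 uM synthetic peptide in MOPS pH7.2 kinase buffer with 50 uM ATP, 20 mM MgCl2 and γ-33P ATP for the indicated time. Phosphorylated peptide captured on phosphocellulose, washed with phosphoric acid, quantified by scintillation counting.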

Chain of IRAK-4 (Q9NWZ3 whole entry, species assumed): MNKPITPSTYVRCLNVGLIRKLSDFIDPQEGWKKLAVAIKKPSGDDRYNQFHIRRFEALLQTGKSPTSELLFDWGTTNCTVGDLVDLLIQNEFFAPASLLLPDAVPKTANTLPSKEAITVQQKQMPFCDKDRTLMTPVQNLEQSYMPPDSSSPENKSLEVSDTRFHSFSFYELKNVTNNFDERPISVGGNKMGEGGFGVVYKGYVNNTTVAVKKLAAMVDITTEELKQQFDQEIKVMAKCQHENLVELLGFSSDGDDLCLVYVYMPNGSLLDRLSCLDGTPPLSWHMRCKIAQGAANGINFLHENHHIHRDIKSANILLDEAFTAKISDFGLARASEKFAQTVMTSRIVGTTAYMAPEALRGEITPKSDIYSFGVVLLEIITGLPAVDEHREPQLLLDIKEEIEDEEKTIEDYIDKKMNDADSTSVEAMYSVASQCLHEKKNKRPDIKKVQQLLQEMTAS

In order of rising IC50:
1. O=C(Nc1cc(Cl)ccc1OC1CCC(O)CC1)c1cnn2cc(CCO)cnc12 (stereo not drawn) [Example 147, 6-(2-Hydroxy-ethyl)-pyrazolo[1,5-alpha]pyrimidine-3-carboxylic acid [5-chloro-2-(4-hydroxy-cyclohexyloxy)-phenyl]-amide]  3.04 µM
2. CC(N)C1CCN(c2ccc(Cl)cc2NC(=O)c2cnn3cccnc23)C1 (stereo not drawn) [Example 148, Pyrazolo[1,5-alpha]pyrimidine-3-carboxylic acid {2-[3-(1-amino-ethyl)-pyrrolidin-1-yl]-5-chloro-phenyl}-amide hydrochloride]  3.08 µM
3. CN(CCCO)c1ccc(Cl)cc1NC(=O)c1cnn2cccnc12 [Example 149, Pyrazolo[1,5-alpha]pyrimidine-3-carboxylic acid {5-chloro-2-[(3-hydroxy-propyl)-methyl-amino]-phenyl}-amide]  3.4 µM
4. COc1ccc(Cl)cc1NC(=O)c1csc2cccnc12 [Example 150, Thieno[3,2-beta]pyridine-3-carboxylic acid (5-chloro-2-methoxy-phenyl)-amide]  3.46 µM
5. CNCC1CCN(c2ccc(Cl)cc2NC(=O)c2csc3cncnc23)CC1 [Example 151, Thieno[3,2-d]pyrimidine-7-carboxylic acid [5-chloro-2-(4-methylaminomethyl-piperidin-1-yl)-phenyl]-amide]  3.54 µM
6. COc1ccc(/C=C/CO)cc1NC(=O)c1cnn2cccnc12 [Example 152, Pyrazolo[1,5-alpha]pyrimidine-3-carboxylic acid [5-(3-hydroxy-propenyl)-2-methoxy-phenyl]-amide]  3.7 µM
7. COc1ccc(C)cc1NC(=O)c1cnn2cccnc12 [Example 153, Pyrazolo[1,5-alpha]pyrimidine-3-carboxylic acid (2-methoxy-5-methyl-phenyl)-amide]  3.77 µM
8. CCc1ccc(Cl)cc1NC(=O)c1cnn2cccnc12 [Example 154, Pyrazolo[1,5-alpha]pyrimidine-3-carboxylic acid (5-chloro-2-ethyl-phenyl)-amide]  3.8 µM
9. O=C(Nc1cc(Cl)ccc1Oc1cccc(O)c1)c1cnn2cccnc12 [Example 156, Pyrazolo[1,5-alpha]pyrimidine-3-carboxylic acid [5-chloro-2-(3-hydroxy-phenoxy)-phenyl]-amide]  4.05 µM
10. COc1ccc(Cl)cc1NC(=O)c1csc2cnc(N(C)CCO)nc12 [Example 157, 2-[(2-Hydroxy-ethyl)-methyl-amino]-thieno[3,2-d]pyrimidine-7-carboxylic acid (5-chloro-2-methoxy-phenyl)-amide]  4.13 µM
11. COc1ccc(NC(=O)c2cnn3cccnc23)c(OC)c1 [Example 158, Pyrazolo[1,5-alpha]pyrimidine-3-carboxylic acid (2,4-dimethoxy-phenyl)-amide]  4.17 µM
12. COC(=O)COc1ccc(Cl)cc1NC(=O)c1cnn2cccnc12 [Example 160, {4-Chloro-2-[(pyrazolo[1,5-alpha]pyrimidine-3-carbonyl)-amino]-phenoxy}-acetic acid methyl ester]  4.3 µM
13. O=C(Nc1cc(Cl)ccc1Oc1ccccc1)c1cnn2cccnc12 [Example 161, Pyrazolo[1,5-alpha]pyrimidine-3-carboxylic acid (5-chloro-2-phenoxy-phenyl)-amide]  4.65 µM
14. COc1ccc(Cl)cc1NC(=O)c1csc2ccc(NCCO)nc12 [Example 162, 5-(2-Hydroxy-ethylamino)-thieno[3,2-beta]pyridine-3-carboxylic acid (5-chloro-2-methoxy-phenyl)-amide]  4.66 µM
15. O=C(Nc1cc(Cl)ccc1OC[C@H](O)CO)c1cnn2cccnc12 [Example 163, Pyrazolo[1,5-alpha]pyrimidine-3-carboxylic acid [5-chloro-2-(2,3-dihydroxy-propoxy)-phenyl]-amide]  4.66 µM
16. O=C(Nc1cc(Cl)ccc1N1CCCCC1CO)c1cnn2cccnc12 (stereo not drawn) [Example 164, Pyrazolo[1,5-alpha]pyrimidine-3-carboxylic acid [5-chloro-2-(2-hydroxymethyl-piperidin-1-yl)-phenyl]-amide]  4.85 µM
